Measurements published in patent US9745325B2, “Fused heterocyclic compound” (Takeda Pharmaceutical Company Limited, priority 2014, dated 2017).

Key:
CDK8/CycC = target: T1, CDK8/CycC (Homo sapiens, UniProt P49336); assay: CDK8 inhibitory activity (Kinase Tracer-236 / Eu-anti-GST fluorescence assay); assay type: binding; parameters: Percent inhibition of CDK8 activity (%): concentration or dose not given beside the values; details: test compound concentration given as '1 1.1.1\4' [sic]
T1 construct: purchased Carna Biosciences
T1 sequence (P49336 whole entry): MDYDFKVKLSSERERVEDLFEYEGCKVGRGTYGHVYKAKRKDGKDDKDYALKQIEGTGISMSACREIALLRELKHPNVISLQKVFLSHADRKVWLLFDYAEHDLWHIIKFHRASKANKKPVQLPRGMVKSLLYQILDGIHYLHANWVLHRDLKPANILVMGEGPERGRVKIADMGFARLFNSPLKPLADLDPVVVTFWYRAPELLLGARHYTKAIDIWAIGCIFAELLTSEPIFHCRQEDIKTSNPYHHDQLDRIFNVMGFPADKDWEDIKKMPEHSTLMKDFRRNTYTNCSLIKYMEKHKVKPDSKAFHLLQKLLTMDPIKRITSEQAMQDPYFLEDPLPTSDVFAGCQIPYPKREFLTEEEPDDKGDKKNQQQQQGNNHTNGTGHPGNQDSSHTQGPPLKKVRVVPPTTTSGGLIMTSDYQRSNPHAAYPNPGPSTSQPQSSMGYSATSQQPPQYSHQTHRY
T1 sequence (P24863 whole entry partner): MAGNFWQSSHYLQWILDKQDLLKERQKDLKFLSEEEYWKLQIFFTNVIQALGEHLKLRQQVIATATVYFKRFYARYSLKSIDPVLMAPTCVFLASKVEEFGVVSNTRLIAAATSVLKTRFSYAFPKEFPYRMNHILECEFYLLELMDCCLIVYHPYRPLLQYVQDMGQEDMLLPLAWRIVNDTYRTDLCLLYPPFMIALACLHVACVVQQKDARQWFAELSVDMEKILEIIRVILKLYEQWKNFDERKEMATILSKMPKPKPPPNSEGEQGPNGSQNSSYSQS
Method: (§1) The compound of the present invention was evaluated for its CDK8 inhibitory activity and CDK19 inhibitory activity by the following method. […] The primary diluted solution was dispensed in the amount of 2 μL/well to a 384-well plate, and then, a mixed solution of Eu^3+ Cryptate conjugated mouse monoclonal antibody anti-glutathione S-transferase (Cisbio) diluted 267-fold with an assay buffer and 60 nM Kinase Tracer-236 (Life technologies) was added thereto at 2 μL/well. […] After the addition, the plate was left standing at room temperature for 1 hour, and then, the fluorescence intensity (excitation wavelength 320 nm, fluorescence wavelength 615 nm, 665 nm, delay time 50 μsec) was measured using ann EnVision plate reader (PerkinElmer). The percent inhibition of CDK8 or CDK19 activity by the test compound can be calculated according to the following formula, wherein the fluorescence intensity of a reaction solution in the absence of compound is defined as the control, and the fluorescence intensity of a reaction solution in the presence of 10 μM of control compound is defined as the blank.

[1] = system: human multiple myeloma RPMI8226 cells; assay: Inhibitory activity against human multiple myeloma RPMI8226 cell growth (CellTiter-Glo); assay type: cell-based; details: Homo sapiens, RPMI-8226, 192 h, 1 μM test compound, cultured for 8 days; read-out: Percent inhibition of RPMI8226 cell growth (%)
Method: The compound of the present invention was evaluated for its inhibitory activity against human multiple myeloma RPMI8226 cell growth by the following method.
A suspension of human multiple myeloma RPMI8226 cells (purchased from the Health Protection Agency) was inoculated at 40 μL (300 cells/well) to a 384-well plate and cultured at 37° C. for 1 day in a 5% CO2 incubator. After the culture, each test compound solution was added thereto at a test concentration of 1 μM using TECAN D300, and the cells were further cultured for 8 days. After the culture, CellTiter-Glo™ Luminescent Cell Viability Assay reagent (Promega) was added at 40 μL/well to a 384-well plate, and the amount of luminescence was measured using a luminometer. Inhibitory activity against human multiple myeloma RPMI8226 cell growth (percent inhibition (%)) of the test compound was calculated according to the following formula, which is based on the hypothesis that the amount of residual ATP reflects the number of cells. In this formula, 100% control represents the amount of luminescence from a well with only 0.1% DMSO added. Percent inhibition (%)=(1−(amount of luminescence of the test compound)÷(100% control))×100

CDC2L6/CycC (CDK19) = target: T2, CDC2L6/CycC (CDK19) (Homo sapiens, UniProt Q9BWU1); assay: CDK19 inhibitory activity (Kinase Tracer-236 / Eu-anti-GST fluorescence assay); assay type: binding; parameters: Percent inhibition of CDK19 activity (%): concentration or dose not given beside the values; details: test compound concentration given as '1 1.1.1\4' [sic]
T2 construct: purchased Carna Biosciences Inc
T2 sequence (Q9BWU1 whole entry): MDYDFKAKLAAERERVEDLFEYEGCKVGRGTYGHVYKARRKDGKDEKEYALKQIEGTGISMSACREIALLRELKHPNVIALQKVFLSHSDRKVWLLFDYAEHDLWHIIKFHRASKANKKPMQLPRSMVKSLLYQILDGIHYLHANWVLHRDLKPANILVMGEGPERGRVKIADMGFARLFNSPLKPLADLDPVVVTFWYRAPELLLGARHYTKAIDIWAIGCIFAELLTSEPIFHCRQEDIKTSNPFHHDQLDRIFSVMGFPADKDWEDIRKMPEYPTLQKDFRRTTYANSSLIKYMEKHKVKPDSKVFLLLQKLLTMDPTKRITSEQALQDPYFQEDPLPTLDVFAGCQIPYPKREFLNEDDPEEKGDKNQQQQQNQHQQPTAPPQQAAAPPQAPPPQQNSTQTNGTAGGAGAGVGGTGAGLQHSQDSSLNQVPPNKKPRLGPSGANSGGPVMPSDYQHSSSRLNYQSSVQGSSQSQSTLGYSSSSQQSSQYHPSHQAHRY
T2 sequence (P24863 whole entry partner): as the sequence (P24863 whole entry partner) above
Method: as §1

Compound	Percent inhibition of CDK8 activity (%) (CDK8/CycC)	inhibition at 1 µM [1]	Percent inhibition of CDK19 activity (%) (CDC2L6/CycC (CDK19))
COCCN(C)C(=O)c1ccc(Oc2sc(C(N)=O)c3c2-c2sncc2CC3)cn1 [Example 101, 8-((6-((2-Methoxyethyl)(methyl)carbamoyl)pyridin-3-yl)oxy)-4,5-dihydrothieno[3,4-g][1,2]benzothiazole-6-carboxamide]	106%	65%	95%
NC(=O)c1sc(Oc2ccc(C(=O)N3CCCC3)nc2)c2c1CCc1cnsc1-2 [Example 102, 8-((6-(Pyrrolidin-1-ylcarbonyl)pyridin-3-yl)oxy)-4,5-dihydrothieno[3,4-g][1,2] benzothiazole-6-carboxamide]	103%	58%	100%
N#Cc1cncc(Oc2sc(C(N)=O)c3c2-c2sncc2CC3)c1 [Example 103, 8-((5-Cyanopyridin-3-yl)oxy)-4,5-dihydrothieno[3,4-g][1,2]benzothiazole-6-carboxamide]	103%	52%	95%
NC(=O)c1sc(Oc2ccc(C(=O)N3CCC3)nc2)c2c1CCc1cnsc1-2 [Example 104]	101%	66%	102%
CN(CCO)C(=O)c1ccc(Oc2sc(C(N)=O)c3c2-c2sncc2CC3)cn1 [Example 105]	99%	54%	96%
NC(=O)c1sc(Oc2ccc(C(=O)N3CCCCC3)nc2)c2c1CCc1cnsc1-2 [Example 106, 8-((6-(Piperidin-1-ylcarbonyl)pyridin-3-yl)oxy)-4,5-dihydrothieno[3,4-g][1,2] benzothiazole-6-carboxamide]	97%	58%	95%
CN(C(=O)C1CC1)c1ccc(Oc2sc(C(N)=O)c3c2-c2sncc2CC3)cn1 [Example 108, 8-((6-((Cyclopropylcarbonyl)(methyl)amimo)pyridin-3-yl)oxy)-4,5-dihydrothieno[3,4-g][1,2]benzothiazole-6-carboxamide]	101%	63%	99%
NC(=O)c1sc(Oc2ccc(C(=O)N3CC[C@@H](O)C3)nc2)c2c1CCc1cnsc1-2 [Example 109, 8-((6-(((3R)-3-Hydroxypyrrolidin-1-yl)carbonyl)pyridin-3-yl)oxy)-4,5-dihydrothieno[3,4-g][1,2]benzothiazole-6-carboxamide]	105%	63%	98%
NC(=O)c1sc(Oc2ccc(C(=O)N3CC[C@H](O)C3)nc2)c2c1CCc1cnsc1-2 [Example 110, 8-((6-(((3S)-3-Hydroxypyrrolidin-1-yl)carbonyl)pyridin-3-yl)oxy)-4,5-dihydrothieno[3,4-g][1,2]benzothiazole-6-carboxamide]	103%	63%	98%
COC1CN(C(=O)c2ccc(Oc3sc(C(N)=O)c4c3-c3sncc3CC4)cn2)C1 [Example 111, 8-((6-((3-Methoxyazetidin-1-yl)carbonyl)pyridin-3-yl)oxy)-4,5-dihydrothieno[3,4-g][1,2]benzothiazole-6-carboxamide]	107%	58%	100%
CNC(=O)c1ccc(Oc2sc(C(N)=O)c3c2-c2sncc2CC3)c(C)n1 [Example 112, 8-((2-Methyl-6-(methylcarbamoyl)pyridin-3-yl)oxy)-4,5-dihydrothieno [3,4-g][1,2]benzothiazole-6-carboxamide]	106%	69%	102%
COC1CN(C(=O)c2ccc(Oc3sc(C(N)=O)c4c3-c3sncc3CC4)c(C)n2)C1 [Example 113, 8-((6-((3-Methoxyazetidin-1-yl)carbonyl)-2-methylpyridin-3-yl)oxy)-4,5-dihydrothieno[3,4-g][1,2] benzothiazole-6-carboxamide]	108%	68%	101%
CC(C)(O)CNC(=O)c1ccc(Oc2sc(C(N)=O)c3c2-c2sncc2CC3)cn1 [Example 114, 8-((6-((2-Hydroxy-2-methylpropyl)carbamoyl)pyridin-3-yl)oxy)-4,5-dihydrothieno[3,4-g][1,2]benzothiazole-6-carboxamide]	108%	65%	100%
CN(CC(C)(C)O)C(=O)c1ccc(Oc2sc(C(N)=O)c3c2-c2sncc2CC3)cn1 [Example 115, 8-((6-((2-Hydroxy-2-methylpropyl) (methyl)carbamoyl)pyridin-3-yl)oxy)-4,5-dihydrothieno[3,4-g][1,2] benzothiazole-6-carboxamide]	100%	63%	95%
Cc1nc(C(=O)N(C)C)ccc1Oc1sc(C(N)=O)c2c1-c1sncc1CC2 [Example 116, 8-((6-(Dimethylcarbamoyl)-2-methylpyridin-3-yl)oxy)-4,5-dihydrothieno[3,4-g][1,2]benzothiazole-6-carboxamide]	103%	61%	99%
CCOCCNC(=O)c1ccc(Oc2sc(C(N)=O)c3c2-c2sncc2CC3)cn1 [Example 117, 8-((6-((2-Ethoxyethyl)carbamoyl)pyridin-3-yl)oxy)-4,5-dihydrothieno [3,4-g][1,2]benzothiazole-6-carboxamide]	110%	64%	99%
NC(=O)c1sc(Oc2ccc(C(=O)NC3CC3)nc2)c2c1CCc1cnsc1-2 [Example 118, 8-((6-(Cyclopropylcarbamoyl)pyridin-3-yl)oxy)-4,5-dihydrothieno[3,4-g][1,2] benzothiazole-6-carboxamide]	104%	64%	100%
CCOCCNC(=O)c1ccc(Oc2sc(C(N)=O)c3c2-c2sncc2CC3)c(C)n1 [Example 119, 8-((6-((2-Ethoxyethyl)carbamoyl)-2-methylpyridin-3-yl)oxy)-4,5-dihydrothieno[3,4-g][1,2]benzothiazole-6-carboxamide]	108%	68%	101%
CCOCCNC(=O)c1ccc(Oc2sc(C(N)=O)c3c2-c2sncc2CC3)cc1 [Example 120]	104%	74%	99%
COCCN(C)C(=O)c1ccc(Oc2sc(C(N)=O)c3c2-c2sncc2CC3)c(C)n1 [Example 121, 8-((6-((2-Methoxyethyl)(methyl)carbamoyl)-2-methylpyridin-3-yl)oxy)-4,5-dihydrothieno[3,4-g][1,2] benzothiazole-6-carboxamide]	104%	63%	101%
COCCN(C)C(=O)c1ccc(Oc2sc(C(N)=O)c3c2-c2sncc2CC3)cc1 [Example 123]	100%	64%	101%
Cc1n[nH]c(C)c1Oc1sc(C(N)=O)c2c1-c1sncc1CC2 [Example 124, 8-((3,5-Dimethyl-1H-pyrazol-4-yl)oxy)-4,5-dihydrothieno[3,4-g][1,2] benzothiazole-6-carboxamide]	105%	70%	101%
COCC(=O)N(C)c1ccc(Oc2sc(C(N)=O)c3c2-c2sncc2CC3)cn1 [Example 125, 8-((6-((Methoxyacetyl)(methyl)amino)pyridin-3-yl)oxy)-4,5-dihydrothieno [3,4-g][1,2]benzothiazole-6-carboxamide]	102%	66%	101%
